These results are taken from patent US20060058320A1, “[1,2,4] Triazolo[1,5-c]pyrimidine derivatives” (KYOWA HAKKO KOGYO CO., LTD., priority 2002, published 2006).

Series [1] has as its system CGS 21680-induced catalepsy. Briefly: Activity on CGS 21680-induced catalepsy. The note with it: for inhibition in vivo at 10 mg/kg: Mus musculus, po, read-out: Remission ratio (%); for Total score: total catalepsy score of 10 mice (maximum 50 points; 40 points or less = positive), one hour after administration; for Number of animals showing remission: cases with catalepsy score of 4 points or less in 10 cases. Type of series: in vivo, mice. The method, then: Parkinson's disease is a motor disorder based on degeneration and cell death of the nigrostriatal dopaminergic neurons. When CGS 21680 (adenosine A2A receptor agonist) is administered into the intracerebral ventricle, the inhibitory synaptic transmission of GABA in the medium sized spiny neurons in the corpus striatum is inhibited directly via the adenosine A2A receptor [Journal of Neuroscience, vol. 16, p. 605 (1996)]. Accordingly, it is concidered that the adenosine A2A receptor agonists positively regulate the output of the GABAergic neurons from the corpus striatum to the globus pallidus lateralis, and, as a result, catalepsy is induced by the administration of CGS 21680.
The test was carried out using ten 5-week age male ddY mice (22-25 g in body weight, Japan SLC) per group. CGS 21680 (produced by RBI Co) was dissolved in physiological saline (produced by Otsuka Pharmaceutical Co., Ltd.), and 10 μg/20 μL of the solution was injected into mouse intracerebral ventricle. Each test compound was used by suspending it in distilled water containing 0.3% of polyoxylene (20) sorbitan monooleate (referred to as “Tween 80” hereinafter) (produced by Otsuka Pharmaceutical Co., Ltd.). The suspension containing each test compound or a solution containing no test Compound (distilled water containing 0.3% of Tween 80; used as a control) was orally administered (0.1 mL per 10 g of mouse body weight) 30 minutes before the injection of CGS 21680 into the intracerebral ventricle. One hour after the administration of the each test compound, only forelimbs or only hindlimbs of each mouse were laid on a vertically arranged stand made of acryl and having a size of 4.5 cm in height and 1.0 cm in width to measure catalepsy symptoms. All of the test compounds were administered orally in a dose of 10 mg/kg.
The criteria of the catalepsy score are shown below.
The effect was decided by a total catalepsy score of 10 mice in one group (the maximum score: 50 points). When the total score was 40 points or less, the activity of the compounds was decided positive. The number of the animals showing remission of catalepsy was expressed by the number of cases showing a catalepsy score of 4 points or less in 10 cases. The catalepsy remission ratio was expressed as the percentage of the total score in the test compound-administered group to the total score in the control group.

[2] abbreviates: from total score of test group and control group, 10 mg/kg orally.

As a reminder, the melting point is the temperature, or range, at which the solid turns liquid.

Where a name gives a salt, the structure may show the parent alone. Read-outs that look alike come from different tables or passages of the source.

Regarding `Nc1nc(COc2ccccc2)cc2nc(-c3ccco3)nn12`, the melting point was 247.2 to 247.4 °C.
Consider `Nc1nc(COc2cccc(Br)c2)cc2nc(-c3ccco3)nn12`, for which the melting point lay within 261.5 to 261.9 °C.
Compound `Nc1nc(-c2ccco2)cc2nc(-c3ccco3)nn12` yielded a melting point of 250.2 to 250.4 °C.
For `Nc1nc(C2=CCN(CC3CC3)CC2)cc2nc(-c3ccco3)nn12`, the melting point was 196.9 to 197.4 °C.
Same read-out and setting: next, `CC(C)(O)CN1CC=C(c2cc3nc(-c4ccco4)nn3c(N)n2)CC1`: 197.8 to 198.1 °C.
Same read-out and setting: next, `CC(=O)NCCNC(=O)c1cc2nc(-c3ccco3)nn2c(N)n1`: 233.8 to 234 °C; `CN(C)CCN(Cc1ccccc1)C(=O)c1cc2nc(-c3ccco3)nn2c(N)n1`: 215.2 to 215.4 °C.
Same read-out and setting: the result for `Nc1nc(C(=O)NCC2CCCCC2)cc2nc(-c3ccco3)nn12` reads 273.5 to 274 °C; that for `Nc1nc(C2=CCN(CC(F)(F)F)CC2)cc2nc(-c3ccco3)nn12`, 247.5 to 248.2 °C (dec.).
On to `Nc1nc(/C=C/CNCC2CC2)cc2nc(-c3ccco3)nn12` (as salt: HCl) [Compound 68, 5-Amino-7-[3-(cyclopropylmethylamino)-(E)-propan-1-en-1-yl]-2-(2-furyl)[1,2,4]triazolo[1,5-c]pyrimidine], for which the melting point was in the range of 263.5 to 264.2 °C.
Still for that read-out and setting: next, `CN(Cc1ccccc1)C(=O)c1cc2nc(-c3ccco3)nn2c(N)n1` (as salt: HCl) [Compound 78, 5-Amino-2-(2-furyl)[1,2,4]triazolo[1,5-c]pyrimidine-7-carboxylic acid (N-benzyl-N-methyl)amide]: 188.5 to 189.1 °C; `CCN1CCN(Cc2ccc(-c3cc4nc(-c5ccco5)nn4c(N)n3)cc2)CC1` (as salt: hydrochloride): 265 °C (dec.); `COc1ccc(CNCc2ccc(-c3cc4nc(-c5ccco5)nn4c(N)n3)cc2)cc1OC` (as salt: hydrochloride): 256.2 to 256.8 °C.
As to `CCN1CCN(Cc2ccccc2-c2cc3nc(-c4ccco4)nn3c(N)n2)CC1` (as salt: hydrochloride), the melting point lay in the range of 253 to 253.4 °C.
Same read-out and setting: next, `COc1cc(CNCc2ccccc2-c2cc3nc(-c4ccco4)nn3c(N)n2)cc(OC)c1` (as salt: hydrochloride): 213.5 to 214.3 °C; `CC(=O)NCCNCc1ccccc1-c1cc2nc(-c3ccco3)nn2c(N)n1` (as salt: hydrochloride) [Compound 7, 5-Amino-7-{2-[2-(N-acetylamino)ethylaminomethyl]phenyl}-2-(2-furyl)[1,2,4]triazolo[1,5-c]pyrimidine monohydrochloride]: 230.8 to 231.3 °C.
Same read-out and setting: next, `Nc1nc(-c2ccc(CNCCCN3CCCC3=O)cc2)cc2nc(-c3ccco3)nn12` (as salt: hydrochloride) [Compound 14, 5-Amino-2-(2-furyl)-7-{4-[3-(2-oxopyrrolidin-1-yl)propylaminomethyl]phenyl}[1,2,4]triazolo[1,5-c]pyrimidine monohydrochloride]: 269.2 to 269.8 °C.
Same read-out and setting: the result for `CC(=O)NCCNCc1ccc(-c2cc3nc(-c4ccco4)nn3c(N)n2)cc1` (as salt: hydrochloride) [Compound 16, 7-{4-[2-(N-acetylamino)ethylaminomethyl]phenyl}-5-amino-2-(2-furyl)[1,2,4]triazolo[1,5-c]pyrimidine monohydrochloride] reads 238.5 to 240 °C; that for `COc1cc(CNCc2ccc(-c3cc4nc(-c5ccco5)nn4c(N)n3)cc2)cc(OC)c1` (as salt: hydrochloride) [Compound 17, 5-Amino-7-[4-(3,5-dimethoxybenzylaminomethyl)phenyl]-2-(2-furyl)[1,2,4]triazolo[1,5-c]pyrimidine monohydrochloride], 224.6 to 225.2 °C.
In the case of `COc1ccc(CNCc2cc3nc(-c4ccco4)nn3c(N)n2)cc1OC` (as salt: hydrochloride) [Compound 42, 5-Amino-7-(3,4-dimethoxybenzylaminomethyl)-2-(2-furyl)-[1,2,4]triazolo[1,5-c]pyrimidine dihydrochloride], the melting point was 241.2 to 241.5 °C.
On the same count and under the same terms, the result for `COc1cc(CNCc2cc3nc(-c4ccco4)nn3c(N)n2)cc(OC)c1` (as salt: hydrochloride) [Compound 43, 5-Amino-7-[(3,5-dimethoxybenzylamino)methyl]-2-(2-furyl)-[1,2,4]triazolo[1,5-c]pyrimidine dihydrochloride] reads 238.5 to 238.7 °C; that for `Nc1nc(CNCCc2ccccn2)cc2nc(-c3ccco3)nn12` (as salt: hydrochloride) [Compound 44, 5-Amino-7-[2-(2-pyridyl)ethylaminomethyl]-2-(2-furyl)-[1,2,4]triazolo[1,5-c]pyrimidine dihydrochloride], 249.5 to 249.7 °C.
On the same count and under the same terms, next, `Nc1nc(CNCCCN2CCCC2=O)cc2nc(-c3ccco3)nn12` (as salt: hydrochloride) [Compound 47, 5-Amino-2-(2-furyl)-7-[3-(2-oxopyrrolidin-1-yl)propylamino-methyl][1,2,4]triazolo[1,5-c]pyrimidine dihydrochloride]: 229.1 to 229.8 °C; `CCN1CCN(Cc2cc3nc(-c4ccco4)nn3c(N)n2)CC1` (as salt: hydrochloride) [Compound 48, 5-Amino-7-(4-ethylpiperazin-1-ylmethyl)-2-(2-furyl)[1,2,4]-triazolo[1,5-c]pyrimidine trihydrochloride]: 262 to 262.4 °C.
As to `Nc1nc(CN2CCN(CC3CC3)CC2)cc2nc(-c3ccco3)nn12` (as salt: hydrochloride) [Compound 50, 5-Amino-7-[4-(cyclopropylmethyl)piperazin-1-ylmethyl]-2-(2-furyl)[1,2,4]triazolo[1,5-c]pyrimidine dihydrochloride], the melting point was 270 °C (dec.).
On to `COCC(C)NCc1ccccc1-c1cc2nc(-c3ccco3)nn2c(N)n1` (racemic) (as salt: hydrochloride) [Compound 9, (±)-5-Amino-2-(2-furyl)-7-[{2-[(2-methoxy-1-methylethyl)aminomethyl]phenyl}(1,2,4]triazolo[1,5-c]pyrimidinemonohydrochloride], for which the melting point fell in the range of 178.9 to 179.7 °C.
`Nc1nc(-c2ccccc2C=O)cc2nc(-c3ccco3)nn12` [Compound 2, 5-Amino-7-(2-formylphenyl)-2-(2-furyl)[1,2,4]triazolo[1,5-c]pyrimidine]: the melting point lay within 224 to 224.5 °C.
In the case of `COC1CCN(C(=O)c2cc3nc(-c4ccco4)nn3c(N)n2)CC1` [Compound 144, 5-Amino-2-(2-furyl)[1,2,4]triazolo[1,5-c]pyrimidin-7-yl 4-methoxypiperidino ketone], the inhibition in vivo at 10 mg/kg in series [1] (setting [2]) came out at 84%. Besides, in series [1] (10 mg/kg orally), the Total score is listed as 7.
Turning to `COC[C@H]1CCCN1C(=O)c1cc2nc(-c3ccco3)nn2c(N)n1` [Compound 149, (2R)-(2-Methoxymethyl)pyrrolidinyl 5-amino-2-(2-furyl)-7-[1,2,4]triazolo[1,5-c]pyrimidin-7-yl ketone], in series [1] (10 mg/kg orally), the “Number of animals showing remission” value was 7 and the Total score was determined as 15. For the same compound, in series [1] (setting [2]), the “Remission ratio (%)” value is on record as 70%.
On to `Nc1nc(C(=O)N2CCC(O)(c3ccccc3)CC2)cc2nc(-c3ccco3)nn12` [Compound 150, 5-Amino-2-(2-furyl)[1,2,4]triazolo[1,5-c]pyrimidin-7-yl (4-hydroxy-4-phenyl)piperidino ketone], for which, in series [1] (10 mg/kg orally), the “Number of animals showing remission” value was determined as 8 and the Total score is given as 11. In addition, in series [1] (setting [2]), the “Remission ratio (%)” value is reported as 76%.
As to `Nc1nc(C(=O)N2CCC(Cc3ccccc3)CC2)cc2nc(-c3ccco3)nn12` [Compound 158, 5-Amino-2-(2-furyl)[1,2,4]triazolo[1,5-c]pyrimidin-7-yl 4-benzylpiperidino ketone], the inhibition in vivo at 10 mg/kg in series [1] came to 86%. In addition, the Total score in series [1] (10 mg/kg orally) is reported as 7.
On to `Nc1nc(C(=O)N2CCC(O)(Cc3ccccc3)CC2)cc2nc(-c3ccco3)nn12` [Compound 162, 5-Amino-2-(2-furyl)[1,2,4]triazolo[1,5-c]pyrimidin-7-yl 4-benzyl-4-hydroxypiperidino ketone], for which, in series [1] (setting [2]), the inhibition in vivo at 10 mg/kg came to 72%. This compound also had a Total score in series [1] (10 mg/kg orally) of 13.
